Experimental data taken from patent US9814732B2, “Ulipristal acetate for prevention and treatment of breast tumors” (LABORATOIRE HRA-PHARMA, priority 2012, dated 2017).

Columns and labels:
T-47D cells = experiment: Apoptosis, sub-G1 quantification by flow cytometry in T-47D cells; assay type: cell-based, human; conditions: 48 h
Protocol: (§1) After seeding, cells were cultured for 24 h in serum and phenol red free medium. Then treatments were carried out in a phenol red free medium containing 5% dextran-charcoal stripped serum. Cells were treated with P or DEX (100 nM), alone or in combination with UPA, RU (1 nM to 1 μM) or CDB-3877 (100 nM). Control cells were treated with ethanol, at […] 1:1000 final ethanol concentration alone as vehicle or E2 (10 nM).
After 96 h or 48 h of hormonal treatment, respectively, for HBE or MCF-7 and T-47D cells, cells were washed in PBS, matrix dissociated with accutase enzyme (PAA laboratory, Les Mureaux, France), and centrifuged 5 minutes at 1350 rpm. Cells were fixed and frozen at −20° C. in 70% ethanol. Before analysis, cells were washed in PBS and stained with 10 μg/ml propidium iodide in PBS (containing 0.835 U/ml RNase A) (Sigma, St Quentin Fallavier, France). For each sample at least 10 000 cells were counted in a BD LSR II flow cytometer (BD Biosciences, Le Pont de Claix, France). After gating out doublets and debris, cycle distribution was analyzed using the ModFit LT software (Verity Software House, USA).

[1] = Hormone concentrations in serum of pellet-treated athymic mice; assay type: in vivo; conditions: female, NMRI nu/nu athymic, mouse, other: steroid pellets grafted onto the neck, 20 mg pellet (P from day 14, UPA from day 1), day 28, read-out: concentration in mice serum (mean±SEM)
Protocol: Four weeks old ovariectomized female NMRInu/nu 20 athymic mice were purchased from Janvier laboratory (Le Genest Saint Isle, France). Breast tissues samples were obtained from 6 women (aged 29-42 years). Human mammary gland tissue was cut into 2×2×2 mm fragments and 4 fragments were then subcutaneously xenografted onto the back of 4 mice per group. Four treatment groups were performed: control, E2, E2+P and E2+P+UPA. Treatments were administered by grafting steroid pellets onto the neck of each mouse. The experimental conditions were initially determined by using a dose range of hormones mixed with cholesterol into the pellets. Blood sample assays were performed after 2 weeks and 4 weeks of treatment to measure plasmatic hormonal concentrations. Finally, the dose of 0.3 mg for E2 and 20 mg for P and UPA were used, as it provides the expected blood concentrations. For the control groups, pellets containing only cholesterol were used. To reproduce menstrual cycle conditions, mice were grafted on the first day of experiment with cholesterol, E2 and/or UPA containing pellets and on the fourteen day with cholesterol or progesterone containing pellets in control and E2 groups, or in E+P and E2+P+UPA groups, respectively. Twenty eight days after the start of experiment, mice were sacrificed. Blood was collected for each mouse, and serum was frozen at −20° C. until hormone concentrations
Estradiol was measured by radioimmunoassay using Clinical Assays Estradiol-2 (Sorin Biomedica Diagnostics SpA, Saluggia, Italia). Progesterone levels were evaluated by UPLC-MSMS using Acquity UPLC and Quattro Premier XE (Waters, Milford Mass., USA).
UPA concentrations were measured using LC-MS/MS technique by MPI Research (State College, Pa., USA).

[2] = system: GR target genes (IEX-1, G0S8, cyclin A, BCL2); experiment: qRT-PCR mRNA expression of GR target genes in MCF-7 cells; assay type: cell-based, human
Protocol: as §1
Total RNA was extracted using TriZOL Reagent (Invitrogen, Cergy-Pontoise, France).
2 μg of total RNA was subjected to reverse transcription (RT) using random primers for 1 h at 37° C. 2 μl of RT product was diluted (1:10) and subjected to quantitative PCR using sequence specific primers (300 nM) and Brillant SYBR GREEN QPCR master mix (Fermentas, Saint-Rémy-lès-Chevreuse, France) on an Mx3000P apparatus (Agilent Technologies, Massy, France). Conditions were 1 cycle at 95° C. for 10 min followed by 40 cycles at 95° C. for 30 sec, 60° C. for 1 min and 72° C. for 30 sec. Gene expression values were normalized to the housekeeping gene 36B4. Time of steroid treatment was chosen to get the optimal stimulation for a given gene. ALPL and G0S8 mRNA were analyzed after 6 h of treatment. IEX-1, FASN, and BCL2 were analyzed after 24 h of treatment. Cyclin A mRNA was analyzed after 24 h for GR responses or 48 h for PR responses.

hPR-A and hPR-B = experiment: MMTV-Luc reporter gene transactivation in HBE cells transfected with hPR-A and/or hPR-B; assay type: cell-based, human
Protocol: T-47D and MCF-7 cell lines were respectively maintained in RPMI 1640 and in DMEM medium supplemented with 10% fetal calf serum (PAA Laboratory, Les Mureaux, France). […] Normal human breast epithelial cell (HBE) primary cultures were obtained from 20 women (aged 17-50 years). […] HBE cells were maintained in HAM F10 medium (PAA Laboratory, Les Mureaux, France) containing hydrocortisone (5 ng/ml), Triiodo-L-thyronine (6.5 ng/ml), choleratoxin (10 ng/ml), transferrin (5 mg/ml), insulin (0.016 U/ml), epidermal growth factor (10 ng/ml) (Sigma, St Quentin Fallavier, France) and 5% human serum (Etablissement Français du Sang).
After seeding, cells were cultured for 24 h in serum and phenol red free medium. Then treatments were carried out in a phenol red free medium containing 5% dextran-charcoal stripped serum. […] Control cells were treated with ethanol, at 10 1:1000 final ethanol concentration alone as vehicle or E2 (10 nM).
Cells were transfected with reporter gene plasmids containing glucocorticoid and progesterone responsive elements (GRE/PRE): 1) the MMTV-Luc is a Mouse Mammary Tumor Virus Long Terminal Repeat promoter containing one GRE/PRE palindrome and three GRE/PRE hemi-palindromes upstream to firefly luciferase gene in pFC31 vector, 2) the GRELuc contains six copies of GRE/PRE palindrome upstream to firefly luciferase gene in pBL vector. When indicated, HBE cells were transfected with human PR isoforms hPR-A and hPR-B expression plasmids constructed in POP3 vectors. Rous Sarcoma Virus promoter upstream to beta galactosidase gene (pRSV-β-Gal) was transfected in each experiment as control. Transfections were performed according to the manufacturer instructions using Lipofectamine or Lipofectamine LTX Reagents (Invitrogen, Cergy-Pontoise, France) for breast cancer cell lines or HBE cells, respectively. After 24 h of transfection, breast cancer and HBE cells were treated with hormones for 24 h or 48 h, respectively. At the end of the experiment, cells were lysed and luciferase activity was determined using the Luciferase Assay System (Promega, Charbonnières-les-bains, France). Beta galactosidase activity was assessed using the Galacto Star kit (Applied Biosystems, Courtaboeuf, France) to normalize luciferase activity data.

GR = target: T1, GR (Homo sapiens, UniProt P04150); experiment: GRE-Luc reporter gene transactivation in MCF-7 cells; assay type: cell-based; design: endogenous in cells; host or cells: MCF-7; conditions: MCF7, DEX 100 nM, test compound 100 nM, read-out: inhibition of DEX-induced luciferase transactivation (GRE-Luc)
T1 sequence (P04150 1-777): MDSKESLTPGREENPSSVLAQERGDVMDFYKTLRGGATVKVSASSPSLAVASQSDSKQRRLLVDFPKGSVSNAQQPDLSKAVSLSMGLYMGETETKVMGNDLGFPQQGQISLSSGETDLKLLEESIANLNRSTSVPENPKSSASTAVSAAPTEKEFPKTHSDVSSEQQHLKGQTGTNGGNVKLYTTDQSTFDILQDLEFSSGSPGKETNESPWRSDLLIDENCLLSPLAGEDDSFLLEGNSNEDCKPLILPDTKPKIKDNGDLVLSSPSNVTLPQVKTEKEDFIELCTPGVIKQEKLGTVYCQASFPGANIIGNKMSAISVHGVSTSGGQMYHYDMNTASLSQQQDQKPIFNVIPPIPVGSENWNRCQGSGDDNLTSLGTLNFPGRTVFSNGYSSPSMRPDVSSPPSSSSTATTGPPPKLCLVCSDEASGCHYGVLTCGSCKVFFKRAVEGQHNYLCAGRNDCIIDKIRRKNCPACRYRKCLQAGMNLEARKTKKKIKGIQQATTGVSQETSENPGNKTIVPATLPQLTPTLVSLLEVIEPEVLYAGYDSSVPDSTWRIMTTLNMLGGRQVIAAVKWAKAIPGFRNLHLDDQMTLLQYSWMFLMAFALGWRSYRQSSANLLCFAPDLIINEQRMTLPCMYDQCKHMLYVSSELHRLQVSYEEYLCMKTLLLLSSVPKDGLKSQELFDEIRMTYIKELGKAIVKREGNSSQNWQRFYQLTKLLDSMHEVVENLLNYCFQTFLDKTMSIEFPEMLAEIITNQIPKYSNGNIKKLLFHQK

For `CC(=O)O[C@]1(C(C)=O)CCC2C3CCC4=CC(=O)CCC4=C3[C@@H](c3ccc(N(C)C)cc3)C[C@@]21C` (stereo partly shown) [UPA, 17[…]-acetoxy-11[…]-[4-N,N-dimethylamino-phenyl)-19-norpregna-4,9-diene-3,20-dione], the “cell apoptosis (sub-G1 percentage), compound alone” value (T-47D cells; 100 nM) was “had no apoptotic or survival properties by itself”, the “effect of UPA on P-mediated apoptosis” value (T-47D cells; P 100 nM + UPA 100 nM) was “tended to inhibit this effect” and the concentration at 28 days [1] was 63.5 ± 10.5 ng/mL. For the same compound, the “G0S8 mRNA expression” value ([2]; DEX and/or UPA 100 nM, 6 h, p<0.001) was “anti-glucocorticoid activity was strong”, the “BCL2 mRNA expression (GR response)” value ([2]; DEX and/or UPA 100 nM, 24 h) was “partially antagonized this effect” and the “IEX-1 mRNA expression” value ([2]; DEX and/or UPA 100 nM, 24 h) was “did not antagonize this response”. For the same compound, the “cyclin A mRNA expression (GR response)” value ([2]; DEX and/or UPA 100 nM, 24 h) was “partially inhibited DEX effect on cyclin A mRNA expression”, the “glucocorticoid agonist activity on GR target genes” value ([2]; UPA 100 nM alone) was “did not display any glucocorticoid agonist activity” and the “inhibition of P induced MMTV-Luc transactivation” value (hPR-A and hPR-B; HBE cells co-transfected with hPR-A and hPR-B, P 100 nM, antagonist 1 to 1000 nM) was “inhibited P induced MMTV11 Luc transactivation in a dose dependent manner from 1 000 to 10 nM”. For the same compound, the “antagonist performance between PR isoforms (MMTV-Luc)” value (hPR-A and hPR-B; HBE cells transfected with only hPR-A or hPR-B) was “No difference with increasing the levels of each PR isoform was seen on UPA antagonist performance”, the “lowest concentration necessary to exert a complete antagonist activity” value (hPR-A and hPR-B; HBE cells, MMTV-Luc, P 100 nM) was “A hundred” and the “progestational agonist properties on reporter gene transcription” value (hPR-A and hPR-B; HBE cells, compound alone) was “did not exhibit progestational agonist properties”. It also gave an inhibition at 0.1 µM (GR) of 59 ± 3.4%.
